Assay type: physicochemical
Excerpt: c. Stabilizing the kit for longer shelf life.
Results: The wash buffer that enabled only three washing steps was the one that contained non-ionic detergent, this being the above-noted PBS-TWEEN buffer (see constituent no. (ii) in the above list).
This is also the case for the other reagents used in the improved kit, as mentioned above.

SMILES	storage stability at 4° C. (in words)	storage stability at 37° C. (in words)
CCN(Cc1cccc(S(=O)(=O)[O-])c1)c1ccc(C(=C2C=CC(=[N+](CC)Cc3cccc(S(=O)(=O)[O-])c3)C=C2)c2ccccc2S(=O)(=O)[O-])cc1.[Na+].[Na+] [blue brilliant]	for one year	stable for one month
O=S(=O)([O-])c1ccc(N=Nc2c(O)ccc3cc(S(=O)(=O)[O-])ccc23)cc1.[Na+].[Na+] [yellow sunset]	for one year	stable for one month

From US6699678B1, “Chlamydia trachomatis specific peptides and their use in diagnostic assays” (Savyon Diagnostics Ltd., priority 1997, dated 2004)
